Experimental data as given in patent US5470877A, “Uses of perillic acid methyl ester” (Wisconsin Alumni Research Foundation, priority 1994, dated 1995).
Where two headings read alike, the source gives them in different places.

Assays:
[1] = Chronic dietary toxicity in rats
[2] = Effect of dietary perillyl alcohol on serum cholesterol and lipids in rats; assay type: in vivo, Wistar-Furth rat
Excerpt: Twenty-one female, six-weeks-old, Wistar-Furth rats were divided into three different diet groups of seven rats each. One group was fed a control diet, one group was fed a 1% perillyl alcohol diet, and one group was fed a 2% perillyl alcohol diet. Rats from each diet group were matched into pair feeding groups.
Rats in the control group were pair fed against rats in the 2% POH diet group. Rats in the 1% POH diet group were allowed to eat as much as they wanted. After one month, rats in the 1% POH diet group were also pair fed against rats in 2% POH group. After two months of feeding, rats in all groups were allowed to eat as much as they wanted. The rats were allowed to eat as much as they wanted because the diurnal rhythm of HMGCoA reductase activity might be related to food intake.
The rats' body weights were measured twice a week. Perillyl alcohol diets were made once a week and replaced daily.
[…] About 1 ml blood was taken from each rat each time and collected in heparin (SIGMA) coated tube. For CoQ analysis, 0.5 ml blood was added to the CoQ6 standard. For cholesterol analysis the blood were spun down at 3,000 rpm for 10 minutes and the plasma were taken. By three months, all rats were killed.
Total cholesterol, HDL cholesterol and triglyceride levels in the rats' plasma were measured using diagnostic kits from SIGMA according to manufacturer's instructions. LDL cholesterol levels were calculated by Friedewald's equation. […]

21-26 kDa proteins = assay: Protein isoprenylation inhibition in M600B human mammary epithelial cells; conditions: 3 mM
Description: To test whether a specific monoterpene affects isoprenylation of proteins in cells, cell extracts were incubated with a radioactive isoprene precursor and 0-5 mM of the test monoterpene and then subjected to SDS-PAGE. Because they carried a radioactive label, isoprenylated proteins were visualized by fluorography. As a control, cells were incubated without the monoterpene.
For both isoprenylation and cell growth assays, the monoterpenes were mixed with prewarmed (37° C.) medium containing 10% calf serum, and then the monoterpene-containing medium was added to cells. The relative effects of various monoterpenes on protein isoprenylation were compared by comparison of the relative intensity of bands on fluorograms from [^14 C]-mevalonate-labelled cells treated with each monoterpene.
Some fluorograms were analyzed further by densitometry. Where indicated, gels were sliced, dissolved at 50° C. for 3 hours in 0.5 ml of water+0.5 ml of Solvable (Amersham), and then analyzed by scintillation spectrometry in 10 ml of Atom light (Amersham) mixture.
Samples from each cell line were then analyzed on the same gel.

[3] = test system: CoQ9 and cholesterol synthesis; assay: Mevalonate metabolism: CoQ9 and cholesterol synthesis in NIH3T3 cells; assay type: cell-based, mouse; conditions: for activity at 1000 µM: Mus musculus, NIH3T3, 3 h, average of four experiments ± SD
Description: Analysis of Mevalonate Metabolism. NIH3T3 cells were grown in Dulbecco's modified Eagle's medium supplemented with 10% calf serum. […] The cells were then trypsinized, washed and resuspended in phosphate-buffered saline. The protein concentrations were determined using a bicinchoninic acid protein assay (Shihabi, et al, Ann. Clin. Lab. Sci. 18:235-239, 1988). Samples containing equal amount of protein were spotted on TLC plates with or without acetone extraction (Maziere, et al, J. Biochem. Biophys. Methods 14:267-272, 1987.) The TLC plates were developed with hexane/diethyl ether/acetic acid (70:30:2, v/v) (Maziere, et al, Supra). Dry plates were analyzed for radioactivity using a phosphorimager (Molecular Dynamics).
Labeling Cells with [^14 C(U)] Tyrosine. NIH3T3 cells were treated with 30 μM lovastatin for 18 hours and then incubated in fresh tyrosine deficient minimum essential medium (supplemented with 10% dialyzed fetal bovine serum) containing 400 μM mevalonic acid lactone (Sigma) and 14 μCi/ml [^14 C(U)] tyrosine (500 mCi/mmol) for 3 hours in the absence or presence of 1 mM perillyl alcohol. Cells were harvested and lipids were analyzed as described above.
HPLC Analysis of Unsaponifiable Lipids. Cells were labeled with [2-^14 C] mevalonolactone as described above and then were saponified as described by Popjak et al, J. Lipid Res, 26:831-841, 1985. Unsaponifiable lipids were extracted with petroleum ether, dried and dissolved in chloroform methanol (1:1, v/v). Reverse phase HPLC using a Bio-Rad ODS-5S (25 cm×4 mm) column fitted with a Sigma hypersil ODS guard column was run isocratically with methanol/acetonitrile/water (72.5:22.5:5, v/v) at a flow rate of 0.8 ml/min. The effluent was monitored at 210 nm, the fractions were collected, and radioactivities were determined with a Beckman LS 6000IC Scintillation Counter.

HT29 cells = assay: Protein isoprenylation in HT29 cells; assay type: cell-based, human

C=C(C)[C@@H]1CC=C(CO)CC1 [perillyl alcohol]
weight change ([1]; 0.5% POH diet, chronic): very small weight loss followed by weight gain | weight change ([1]; 1.0% POH diet, chronic): very small weight loss followed by weight gain | tolerability ([1]; 2.0% POH diet, chronic): tolerated with weight loss followed by weight gain | tolerability ([1]; 2.5% POH diet, chronic): tolerated with weight loss observed | death ([1]; 3.0% POH diet, chronic): 2/5 | maximum dose tolerated (% diet) ([1]; dietary, data not shown): 2.5% | Toxicity ([1]; perillyl alcohol-fed rats): limited to weight loss | body weight versus controls ([1]; perillyl alcohol-fed, FIG. 8): did not achieve weights similar to controls | Body Weight ([2]; 1% POH diet): 207 ± 3 g | Heart Weight ([2]; 1% POH diet): 0.57 ± 0.05 g | Liver Weight ([2]; 1% POH diet): 6.1 ± 0.3 g | HDL Cholesterol ([2]; 1% POH diet, Kill): 37.6 ± 3.8 mg/dL | Total Cholesterol ([2]; 1% POH diet, Kill): 47.7 ± 4.3 mg/dL | Triglyceride ([2]; 1% POH diet, Kill): 29.8 ± 8.9 mg/dL | LDL Cholesterol ([2]; 1% POH diet, Kill, Friedewald's equation): 4.1 ± 2.4 mg/dL | HDL Cholesterol ([2]; 1% POH diet, WK3): 31.7 ± 2.3 mg/dL | Total Cholesterol ([2]; 1% POH diet, WK3): 45.9 ± 4.2 mg/dL | Triglyceride ([2]; 1% POH diet, WK3): 20.8 ± 5.2 mg/dL | LDL Cholesterol ([2]; 1% POH diet, WK3, Friedewald's equation): 10.1 ± 3.1 mg/dL | HDL Cholesterol ([2]; 1% POH diet, WK6): 33.1 ± 2.2 mg/dL | Total Cholesterol ([2]; 1% POH diet, WK6): 41.0 ± 3.0 mg/dL | Triglyceride ([2]; 1% POH diet, WK6): 29.5 ± 5.7 mg/dL | LDL Cholesterol ([2]; 1% POH diet, WK6, Friedewald's equation): 2.0 ± 1.4 mg/dL | HDL Cholesterol ([2]; 1% POH diet, WK9): 31.5 ± 2.6 mg/dL | Total Cholesterol ([2]; 1% POH diet, WK9): 43.2 ± 4.9 mg/dL | Triglyceride ([2]; 1% POH diet, WK9): 28.7 ± 5.7 mg/dL | LDL Cholesterol ([2]; 1% POH diet, WK9, Friedewald's equation): 6.0 ± 4.0 mg/dL | Body Weight ([2]; 2% POH diet): 198 ± 6 g | Heart Weight ([2]; 2% POH diet): 0.57 ± 0.05 g | Liver Weight ([2]; 2% POH diet): 6.2 ± 0.5 g | HDL Cholesterol ([2]; 2% POH diet, Kill): 39.8 ± 4.0 mg/dL | Total Cholesterol ([2]; 2% POH diet, Kill): 52.8 ± 6.8 mg/dL | Triglyceride ([2]; 2% POH diet, Kill): 33.8 ± 14.9 mg/dL | LDL Cholesterol ([2]; 2% POH diet, Kill, Friedewald's equation): 6.2 ± 1.8 mg/dL | HDL Cholesterol ([2]; 2% POH diet, WK3): 31.4 ± 1.6 mg/dL | Total Cholesterol ([2]; 2% POH diet, WK3): 44.2 ± 3.7 mg/dL | Triglyceride ([2]; 2% POH diet, WK3): 17.2 ± 5.3 mg/dL | LDL Cholesterol ([2]; 2% POH diet, WK3, Friedewald's equation): 9.4 ± 3.0 mg/dL | HDL Cholesterol ([2]; 2% POH diet, WK6): 33.5 ± 3.6 mg/dL | Total Cholesterol ([2]; 2% POH diet, WK6): 41.2 ± 5.0 mg/dL | Triglyceride ([2]; 2% POH diet, WK6): 21.1 ± 5.7 mg/dL | LDL Cholesterol ([2]; 2% POH diet, WK6, Friedewald's equation): 3.4 ± 2.2 mg/dL | HDL Cholesterol ([2]; 2% POH diet, WK9): 30.7 ± 2.9 mg/dL | Total Cholesterol ([2]; 2% POH diet, WK9): 40.7 ± 3.3 mg/dL | Triglyceride ([2]; 2% POH diet, WK9): 18.4 ± 2.9 mg/dL | LDL Cholesterol ([2]; 2% POH diet, WK9, Friedewald's equation): 6.4 ± 1.2 mg/dL | LDL level versus HDL level ([2]; after 6 weeks of treatment): LDL level is reduced much more than the HDL level | Triglyceride levels ([2]; after 6 weeks of treatment): dramatically reduced | total cholesterol level ([2]; after 6 weeks of treatment): reduced | isoprenylation of 21-26 kDa proteins (21-26 kDa proteins): inhibited significantly | CoQ9 labeled from [14C(U)] tyrosine ([3]; 1 mM perillyl alcohol): greatly reduced | activity at 1000 µM ([3]; 1 mM perillyl alcohol, read-out: Cholesterol + Lathosterol synthesis (% of Control)): 107 ± 16.5% | activity at 1000 µM ([3]; 1 mM perillyl alcohol, read-out: Cholesterol synthesis (% of Control)): 26.7 ± 4.7% | activity at 1000 µM ([3]; 1 mM perillyl alcohol, read-out: CoQ9 synthesis (% of Control)): 14.1 ± 4.6% | activity at 1000 µM ([3]; 1 mM perillyl alcohol, read-out: Lathosterol synthesis (% of Control)): 427 ± 130% | recovery of labeled CoQ9 ([3]; cold control medium up to 6 hours post-labeling): labeled CoQ9 could not be observed | block of cholesterol synthesis on continued exposure ([3]; continually grown in 1 mM perillyl alcohol): maintained the block of cholesterol synthesis | conversion of labeled cholesterol back to lathosterol ([3]; reincubated in 1 mM perillyl alcohol after control medium): did not convert labeled cholesterol back to labeled lathosterol | neutral lipid metabolism changes in treated cells ([3]; spot X = CoQ9, Y = cholesterol, Z = lathosterol): inhibition of two spots (X and Y) and the increased accumulation of a third spot (Z) | neutral lipid changes after [14C]squalene labeling ([3]; spot Y = cholesterol, spot Z = lathosterol): inhibition of spot Y and the accumulation of spot Z | reversibility of block of cholesterol synthesis ([3]; switched to control medium, 3 hour chase): Lathosterol was observed to be converted to cholesterol | differential isoprenylation in HT29 (HT29 cells): differential isoprenylation
